Measured values taken from US9211305B2, “Pharmaceutical compositions with glycosaminoglycans and use thereof in the treatment of chronic ulcers” (LABORATORIOS FARMACEUTICOS ROVI S.A., priority 2008, dated 2015).

Key:
[1] = test system: C57BL/KS.Cg-m Lepr^db+/+m mouse; assay: Example 5: wound healing in non-diabetic mouse, subcutaneous route; assay type: in vivo
Method: The C57BL/KS.Cg-m Lepr^db+/+m mouse is the non-diabetic analog of the mouse used in the previous example.
(§1) On the first day of the assay, the animals were anesthetized (ketamine+xylazine, 100+10 mg/kg, i.m.). The back of the animal was shaved, the area was cleaned with disinfectant and the location of the wound was marked by means of a template to make its position the same in all the animals.
(§2) The wound was made by means of a circular incision with a diameter of approximately 1.5 cm, the skin of the mid-dorsal area being removed. A semipermeable dressing was subsequently placed on the wound. 1 mL/animal of physiological serum was administered by i.p. route after the intervention.
(§3) The wound area was calculated as the percentage of reduction thereof to evaluate the degree of curing thereof, by means of the standardized formula: […]
(§4) The measurement performed immediately after the intervention or incision was used as the baseline area. On the following day and for a total of 14 days, the assigned treatments were administered to the animals.
On the following day and for a total of 14 days, 10 ml/kg were administered to the animals by subcutaneous route in the back of the animal, avoiding the area of the wound.
The follow-up of the animals was performed up to a period of 21 days. The assessment was performed by means of digital photography of the wound and subsequent image analysis.
(§5) The animals were sacrificed on day 21 of the study and the area of the skin where the wound was caused was stored in formol to perform a histopathological evaluation (hematoxylin-eosin staining).
(§6) Each section was given a histological score in the grade 1 to grade V range, where I means uncured wound and V means completely epithelialized wound. The score is based on the degree of cell invasion, the formation of granulation tissue, vascularization and epithelialization.

[2] = test system: C57BL/KsJ-db/db diabetic mouse; assay: Example 4: wound healing in genetically diabetic mouse, subcutaneous route; assay type: in vivo; conditions: for histopathological Grade / histopathological Score: sacrifice day 21, doses as in the 18th table
Method: The genetically diabetic mouse develops resistance to insulin and hyperglycemia similar to those observed in adult diabetes. The total thickness wounds made in the back of these animals takes longer in forming the granulation tissue and in closing than the same wounds caused in non-diabetic animals.
as §1, §2, §3, §4
On the following day and for a total of 14 days, 10 mL/kg were administered to the animals by subcutaneous route in the back of the animal, avoiding the area of the wound.
The follow-up of the animals was performed up to a period of 21 days (average time necessary for the healing of the wounds in this animal model). The assessment was performed by means of digital photography of the wound and subsequent image analysis.
as §5, §6

[3] = in vivo; cited from earlier work
[4] = test system: diabetic rat wound model; assay: Wound healing by oral route in diabetic rat; assay type: in vivo, Wistar rat; conditions: 14 days; for histopathological Grade / histopathological Score: oral, sacrifice day 15, fondaparinux 10 mg/kg, bemiparin 100 mg/kg
Method: Both treatments were administered by oral route at an administration volume of 10 mL/kg. In the case of fondaparinux, a dose of 10 mg/kg was administered and in the case of bemiparin, 100 mg/kg were administered.
The control group only received the carrier used to prepare the assay product. The carrier for the preparation of the assay product is a 1.5% (w/v) bicarbonate solution in water for injections. It was verified that the pH of the formulations prepared was above 8.00.
At the beginning of the assay, diabetes mellitus was induced in all the animals. To that end, they received a single intraperitoneal injection of streptozotocin (60 mg/kg, 10 mL/kg). After 72 hours, the establishment of the diabetes was verified by analyzing the blood glucose levels. To that end, animals were anesthetized with isoflurane and 0.8 mL of blood were extracted from the retroorbicular plexus. The animals had to have values of glucose greater than 15 mmol/L. A week after the induction of the diabetes, the wound was made.
The animals were anesthetized (ketamine+xylazine, 90+10 mg/kg, i.m.). Their back was shaved and cleaned with disinfectant (povidone-iodine) and the area where the wound would be made was marked by means of a template to homogenize its position in all the animals.
The wound was made by means of a circular incision with a diameter of approximately 1.5 cm, the skin of the mid-dorsal area being removed. 1 mL/animal of physiological serum was administered by i.p. route after the intervention. […]. Analgesia (paracetamol, 1 mg/mL) was provided in drinking water for the 7 days after the intervention.
On the day after making the wound and for a total of 14 days, the assigned treatments were administered to the animals. The follow-up of the animals was performed, the evolution of the wounds being macroscopically assessed twice a week, by means of digital photography of the wound. The body weight of the animals was also recorded twice a week.
On the day after the last administration, the animals were sacrificed with anesthesia overdose (pentobarbital sodium). The area where the wound was made was extracted. The front half was frozen in liquid nitrogen and stored in a freezer (−80±5° C.) and the rear half was stored in formol for its subsequent histological processing.
as §3
On the following day and for a total of 14 days, 10 mL/kg were administered to the animals by oral route.
The follow-up of the animals was performed, the evolution of the wounds being macroscopically assessed twice a week, by means of digital photography of the wound. The body weight of the animals was also recorded twice a week.
The animals were sacrificed on day 15 of the study and the area of the skin where the wound was caused was stored in formol to perform a histopathological evaluation (hematoxylin-eosin staining).
Each section was given a histological score in the grade I to grade V range, where I means uncured wound and V means completely epithelialized wound. The score is based on the degree of cell invasion, the formation of granulation tissue, […]

[5] = subcutaneous 14 days, sacrifice day 21, doses as in the 23rd table
[6] = day 21, subcutaneous 14 days, fondaparinux 1 mg/kg, bemiparin 1000 IU Xa/kg

Compound	healing rate with respect to the control ([1]; subcutaneous 1000 IU Xa/kg)	histopathological Grade [1, 5]	histopathological Score [1, 5]	percentage of healing of the wound [2, 6]	percentage of healing of the wound ([2]; from day 18, subcutaneous 1000 IU Xa/kg) [%]	day on which the wound closes ([2]; subcutaneous 1000 IU Xa/kg) [days]	histopathological Grade ([2]; subcutaneous 14 days)	histopathological Score ([2]; subcutaneous 14 days)	granulation tissue in the wound, macroscopic ([2]; subcutaneous, after the fifth day of treatment)	Plasma Half-Life [3] [h]	Plasma Half-Life Range [3] [h]	evolution of the wound area (FIG. 11) ([4]; oral 100 mg/kg)	histopathological Grade [4]	histopathological Score [4]
Bemiparin	does not improve the healing rate	III (7-9 Moderately thick granulation tissue. It can vary from being dominated by inflammatory cells to greater presence of fibroblasts and collagen deposition, extensive neovascularization, minimum to moderate epithelial migration.)	8	complete curing	98	18	IV (10-12 Thick and vascular granulation tissue dominated by fibroblasts and extensive collagen deposition, the epithelium covers the wound partially or completely.)	11.5	a bed covered with granulation tissue	5.3	5.2 to 5.4	heal much better than those treated with fondaparinux	IV (10-12 Thick and vascular granulation tissue dominated by fibroblasts and extensive collagen deposition, the epithelium covers the wound partially or completely.)	11.3
CO[C@H]1O[C@H](COS(=O)(=O)O)[C@@H](O[C@@H]2O[C@@H](C(=O)O)[C@@H](O[C@H]3O[C@H](COS(=O)(=O)O)[C@@H](O[C@@H]4O[C@H](C(=O)O)[C@@H](O[C@H]5O[C@H](COS(=O)(=O)O)[C@@H](O)[C@H](O)[C@H]5NS(=O)(=O)O)[C@H](O)[C@H]4O)[C@H](OS(=O)(=O)O)[C@H]3NS(=O)(=O)O)[C@H](O)[C@H]2OS(=O)(=O)O)[C@H](O)[C@H]1NS(=O)(=O)O [Fondaparinux]	–	–	–	96%	–	–	III (7-9 Moderately thick granulation tissue. It can vary from being dominated by inflammatory cells to greater presence of fibroblasts and collagen deposition, extensive neovascularization, minimum to moderate epithelial migration.)	7.2	–	–	–	–	III (7-9 Moderately thick granulation tissue. It can vary from being dominated by inflammatory cells to greater presence of fibroblasts and collagen deposition, extensive neovascularization, minimum to moderate epithelial migration.)	9.5
